From publication PMC10916623, “Tissue distribution and pharmacokinetics of isoxanthohumol from hops in rodents” (Food Science & Nutrition, 2023)
“And” between values parts separate entries of the source, which are not always exact repeats. Equal entries are not always repeated.

Experiments:
[1] = Plasma pharmacokinetics after single-gavage administration of IXA to mice; assay type: in vivo, C57/BL6 mice; conditions: single oral IXA 50 mg/kg BW, data not shown
Protocol: (§1) Six‐week‐old male C57/BL6 mice (initial BW: 19–24 g; Japan SLC, Shizuoka, Japan) were housed in a room maintained at 23–26°C with a 12‐h light–dark cycle. During the 1‐week acclimatization period, they were allowed free access to a commercial diet (Oriental Yeast Co., Tokyo, Japan) and water. Two days before the experiment, they were fed AIN‐93M (Oriental Yeast Co.). Before drug administration, they were fasted for 20 h, but had free access to water. IXA dissolved in 3% hydroxypropyl‐β‐cyclodextrin and 5% ethanol (Fujifilm; Wako Pure Chemical Corp., Osaka, Japan) was named the injection solution and administered (50 mg/kg BW) to mice intragastrically using a gastric feeding tube (AS ONE, Osaka, Japan). Blood, brain, thymus, heart, lung, liver, spleen, pancreas, kidney, and gastrocnemius muscle were collected 0.5, 1, 2, 4, 8, 12, 24, and 48 h after administration. We also set up a control group, and mice in this group were sacrificed just before we started administering IXA at 0 h. At 4 h after administration, mice were allowed free access to AIN‐93 M. Plasma was isolated by centrifugation at 17 × 10^3 m/s^2 (5911, Kubota, Tokyo, Japan) for 5 min at 4°C. All tissues were dissected, weighed, and immediately frozen in liquid nitrogen. All samples were stored at −80°C until analysis.
(§2) Plasma samples were deconjugated by β‐glucuronidase type H‐1 (which has β‐glucuronidase and sulphatase activity; Sigma, St. Louis, MO, USA; G0751) to convert aglycon from conjugated metabolites of IXA and 8‐PN, as described in a previous report (Y. Tanaka et al., [2022]). Briefly, 100 μL of plasma was mixed with 900 μL of 0.1 mol/L sodium acetate buffer (pH 4.7), 200 μL of 50 mmol/L ascorbic acid, and 1 mL of 1.67 μkat/100 μL of β‐glucuronidase type H‐1, and then incubated for 30 min at 37°C. Then, 2.4 nmol of QTM was added to the samples as the internal standard. The liberated aglycone was extracted using ethyl acetate (Kanto Kagaku, 14,029‐2B).
(§3) The plasma and tissue extracts were evaporated using a Centrifugal Evaporator (EYERA, Tokyo, Japan, CVE‐3000). The samples were stored at −80°C until the next day. Then, the samples were dissolved in 120 μL of a mobile phase solution and divided into two test tubes. The first sample was injected into the HPLC with an ultraviolet detection system (Shimadzu, Kyoto, Japan).
(§4) IXA and 8‐PN concentrations were determined by their respective standard curves using an internal standard method. A Cadenza 3‐μm CD‐C18 HPLC column (CD005, 150 × 4.6 mm; Imtakt Corporation, Kyoto, Japan) was equipped for HPLC (λ = 295 nm). The mobile phase consisted of methanol:water:acetic acid (60:35:5, v/v/v). The flow rate was set at 1.0 mL/min. […] Because clear peaks over 4.5 pmol/sample were detected for IXA and 8‐PN by visual evaluation, we determined that these concentrations were the peak limit of detections for each flavonoid. We applied calibration curves in the IXA/QTM concentration ratio range of 0.007–35.1 (R ^2 = .9955).

[2] = Tissue distribution after single-gavage administration of IXA to mice; assay type: in vivo, C57/BL6 mice; conditions: for 8-PN accumulation, single-ingestion test (at 24 h) / AUC (0–48 h) 8-PN/IXA / C max 8-PN: mice; for 8-PN accumulation, single-ingestion test (at 24 h): single IXA 50 mg/kg BW; for 8-PN accumulation, single-ingestion test (at 24 h) / C max 8-PN: metabolite; for AUC (0–48 h) 8-PN/IXA / C max 8-PN: single oral IXA 50 mg/kg BW
Protocol: as §1
(§5) Tissue sample deconjugation was performed as described in a previous report with slight modifications (Tanaka et al., [2022]). Tissues were homogenized in phosphate‐buffered saline (pH 7.4), which was nine times the tissue volume. The tissue homogenate was incubated in 50 mmol/L ascorbic acid (one‐fifth the volume of phosphate‐buffered saline) and 1.67 μkat/100 μL of β‐glucuronidase type H‐1 in 0.1 mol/L sodium acetate buffer (pH 4.7, nine times the volume of the sample) for 2 h at 37°C. Then, 2.4 nmol of QTM was added to samples as an internal standard. The supernatant was isolated by centrifugation at 17 × 10^3 m/s^2 (Kubota) for 5 min at 4°C. Then, methanol (Kanto Kagaku, 25183‐2B) was added to the pellets, and they were shaken for 1 min. The methanol layer and pellets were separated by centrifugation at 17 × 10^3 m/s^2 (Kubota, RY1071‐A000) for 5 min at 4°C. Methanol extraction was repeated three times. Finally, methanol extracts were mixed with the supernatant (the composition of the mixture was 30% methanol) and then applied to an Inert Sep C8 (200 mg/3 mL; GL Sciences, Tokyo, Japan; 5010‐61082) cartridge. The cartridge was preconditioned with 6 mL of 2% acetic acid in methanol, and then 9 mL of 2% acetic acid in water. The extracted tissue was passed through the cartridge, and it was washed with 5 mL of 2% acetic acid in 30% methanol aq. The flavonoids were eluted with 10 mL of 2% acetic acid in methanol.
as §3, §4

[3] = Tissue and plasma accumulation after daily gavage administration of IXA to mice for 14 days; assay type: in vivo, C57/BL6 mice; conditions: IXA 30 mg/kg BW daily 14 days, metabolite, 24 h after final administration
Protocol: Animal species, age, sex, initial BW, feeding conditions, and dosage method were the same as those for the single gavage administration test, but the dose was 30 mg/kg BW. […] Daily gavage administration without fasting was performed at 12:00 PM for 14 days. The final BW was 21–26 g. Blood, brain, thymus, heart, lung, liver, spleen, kidney, and gastrocnemius muscle were collected 24 h after the final administration. The sample collection method was the same as that for the single gavage administration test.
as §2, §5, §3, §4

[4] = Liver accumulation after intragastric IXA administration at various concentrations to rats for 28 days; assay type: in vivo, Sprague–Dawley rats; conditions: rat liver
Protocol: Six‐week‐old female Sprague–Dawley rats (Charles River Laboratories Japan, Inc., Yokohama, Japan) were housed in a room maintained at 20–26°C on a 12‐h light–dark cycle. The initial BW of rats was 176–179 g. They were allowed free access to a commercial diet (CRF‐1) and water during the experiment. IXA dissolved in injection solution was administered intragastrically to rats (112.5, 225, 360, 450, and 1500 mg/kg BW) daily for 28 days using a gastric feeding tube. We also set up a control group to which the injection solution was administered. The final BW of rats was 231–241 g. The liver was collected the day after the last administration. The rats were fasted for 16–24 h before they were euthanized, but they had free access to water. Liver samples were stored at −80°C until analysis.
as §5
The plasma and tissue extracts were evaporated using a Centrifugal Evaporator (EYERA, Tokyo, Japan, CVE‐3000). The samples were stored at −80°C until the next day. Then, the samples were dissolved in 120 μL of a mobile phase solution and divided into two test tubes. […]
IXA and 8‐PN concentrations were determined by their respective standard curves using an internal standard method. […] Because clear peaks over 4.5 pmol/sample were detected for IXA and 8‐PN by visual evaluation, we determined that these concentrations were the peak limit of detections for each flavonoid. […]

With “4,5,7‐trihydroxy‐8‐prenylflavanone [8‐PN]” the “8-PN in the plasma during the experiment” value [1] was “not observed”, the “8-PN accumulation, single-ingestion test (at 24 h)” value ([2]; liver) was 4.6 ± 1.8 nmol/g of tissue and the “AUC (0–48 h) 8-PN/IXA” value ([2]; liver) was 26%. The “C max 8-PN” value ([2]; liver, measured at 24 h) was 4.6 ± 1.8 nmol/g of tissue, the “8-PN accumulation, single-ingestion test (at 24 h)” value ([2]; lung) was 1.8 ± 0.9 nmol/g of tissue and the “AUC (0–48 h) 8-PN/IXA” value ([2]; lung) was 109% and 109.3%. For the same compound, the “C max 8-PN” value ([2]; lung, measured at 2 h) was 4.5 ± 2.5 nmol/g of tissue, the “AUC (0–48 h) 8-PN/IXA” value ([2]; pancreas) was 1% and the “C max 8-PN” value ([2]; pancreas, measured at 1 h) was 0.6 ± 0.5 nmol/g of tissue. For the same compound, the “8-PN accumulation, 14-day repeated-ingestion test” value ([3]; brain) was 0.8 ± 0.7 nmol/g of tissue, the “8-PN accumulation, 14-day repeated-ingestion test” value ([3]; heart) was “not detected” and the “8-PN accumulation, 14-day repeated-ingestion test” value ([3]; liver) was 2.1 ± 0.4 nmol/g of tissue. The “8-PN accumulation, 14-day repeated-ingestion test” value ([3]; lung) was 3.9 ± 3.5 nmol/g of tissue, the “8-PN accumulation, 14-day repeated-ingestion test” value ([3]; muscle) was 0.1 ± 0.0 nmol/g of tissue and the “8-PN accumulation, 14-day repeated-ingestion test” value ([3]; plasma) was “not detected”. The “8-PN accumulation, 14-day repeated-ingestion test” value ([3]; spleen) was 0.6 ± 0.6 nmol/g of tissue, the “8-PN accumulation, 14-day repeated-ingestion test” value ([3]; thymus) was 0.6 ± 0.5 nmol/g of tissue and the “amount of 8-PN relative to that of IXA (times higher)” value ([4]; IXA 112.5 mg/kg, 28 days) was “approximately two”. The “8-PN levels compared with those of IXA” value ([4]; IXA 1500 mg/kg, 28 days) was “approximately 7.4%” and the “correlation coefficient between dose-concentration and accumulation” value ([4]; IXA 112.5–1500 mg/kg BW once a day for 28 days, Pearson) was “−.255”.
For `CC(C)=CCc1c(O)cc2c(c1O)C(=O)C[C@@H](c1ccc(O)cc1)O2` [6‐PN, 6‐prenylnaringenin], the “presence of 6-PN in the samples analyzed in this study” value ([2]; mouse, in vivo) was “not detected”.
